Laboratory results taken from PubChem BioAssay AID330 (DTP/NCI, 2004).
“And” between values parts separate entries of the source, which are not always exact repeats. Equal entries are not always repeated. Inconclusive results and toxic doses are left out.

Tested on: P388 leukemia ip, CD2F1 mice, survival T/C
Assay: NCI In Vivo Anticancer Drug Screen. Data for tumor model P388 Leukemia (intraperitoneal) in CD2F1 (CDF1) mice
Details: endpoint: median survival time, higher = longer survival
Procedure, shortened: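 Mice carrying the transplanted tumor received test compound or vehicle. Survival was recorded in each group, and the value is the treated-group measurement divided by that of the vehicle-treated control group.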

[1] = dose: 12.5 mg/kg/injection, schedule: Q01DX009 (ip), vehicle: water
[2] = dose: 25.0 mg/kg/injection, schedule: Q01DX009 (ip), vehicle: water
[3] = dose: 60.0 mg/kg/injection, schedule: Q01DX005 (ip), vehicle: saline with Tween-80
[4] = dose: 120.0 mg/kg/injection, schedule: Q01DX005 (ip), vehicle: saline with Tween-80
[5] = dose: 240.0 mg/kg/injection, schedule: Q01DX005 (ip), vehicle: saline with Tween-80

For Cn1c(=O)c2cc(C(N)=O)c(=O)oc2n(C)c1=O, the T/C (dose: 62.5 mg/kg/injection, schedule: Q01DX001 (ip), vehicle: Klucel (hydroxypropylcellulose) (HPC)) was 109 % of control, the T/C (dose: 125.0 mg/kg/injection, schedule: Q01DX001 (ip), vehicle: Klucel (hydroxypropylcellulose) (HPC)) was 110 % of control and the T/C (dose: 250.0 mg/kg/injection, schedule: Q01DX001 (ip), vehicle: Klucel (hydroxypropylcellulose) (HPC)) was 114 % of control.
For COc1cc2cc(-c3ccc(Cl)c(Cl)c3)[n+](C)cc2cc1OC, the T/C (dose: 12.5 mg/kg/injection, schedule: Q01DX009 (ip), vehicle: saline) was 106 % of control, the T/C (dose: 25.0 mg/kg/injection, schedule: Q01DX009 (ip), vehicle: saline) was 94 % of control and the T/C (dose: 50.0 mg/kg/injection, schedule: Q01DX009 (ip), vehicle: saline) was 98 % of control.
CC1CC23C4CCCN2CC2OC2C13C1CC4OC1=O (stereo not drawn) was tested, and the T/C (dose: 12.5 mg/kg/injection, schedule: Q01DX009 (ip), vehicle: Klucel (hydroxypropylcellulose) (HPC)) was 114 % of control, the T/C (dose: 25.0 mg/kg/injection, schedule: Q01DX009 (ip), vehicle: Klucel (hydroxypropylcellulose) (HPC)) was 113 % of control and the T/C (dose: 50.0 mg/kg/injection, schedule: Q01DX009 (ip), vehicle: Klucel (hydroxypropylcellulose) (HPC)) was 115 % of control. For the same molecule, the T/C (dose: 100.0 mg/kg/injection, schedule: Q01DX009 (ip), vehicle: Klucel (hydroxypropylcellulose) (HPC)) was 113 % of control.
In the case of CC1=CC(=O)C2C1CC(=O)C1(C)C3C(=O)OC(C3C)C(O)C21 (stereo not drawn), the T/C (dose: 2.0 mg/kg/injection, schedule: Q01DX005 (ip), vehicle: Klucel (hydroxypropylcellulose) (HPC)) was 94 % of control, the T/C (dose: 4.0 mg/kg/injection, schedule: Q01DX005 (ip), vehicle: Klucel (hydroxypropylcellulose) (HPC)) was 100 % of control and the T/C (dose: 8.0 mg/kg/injection, schedule: Q01DX005 (ip), vehicle: Klucel (hydroxypropylcellulose) (HPC)) was 103 % of control. For the same molecule, the T/C (dose: 16.0 mg/kg/injection, schedule: Q01DX005 (ip), vehicle: Klucel (hydroxypropylcellulose) (HPC)) was 98 % of control and the T/C (dose: 32.0 mg/kg/injection, schedule: Q01DX005 (ip), vehicle: Klucel (hydroxypropylcellulose) (HPC)) was 100 % of control.
In the case of BC(=O)O, the T/C (dose: 25.0 mg/kg/injection, schedule: Q01DX005 (ip), vehicle: saline) was 97 % of control, the T/C (dose: 50.0 mg/kg/injection, schedule: Q01DX005 (ip), vehicle: saline) was 93 % of control and the T/C (dose: 100.0 mg/kg/injection, schedule: Q01DX005 (ip), vehicle: saline) was 93 % of control. For the same molecule, the T/C (dose: 200.0 mg/kg/injection, schedule: Q01DX005 (ip), vehicle: saline) was 106 % of control.
In the case of O=C(CC(O)(C(F)(F)F)C(F)(F)F)c1cccs1, the T/C (dose: 50.0 mg/kg/injection, schedule: Q04DX003 (ip), vehicle: saline with Tween-80) was 116 % of control and the T/C (dose: 100.0 mg/kg/injection, schedule: Q04DX003 (ip), vehicle: saline with Tween-80) was 100 % of control.
O=C(Cn1ccnc1[N+](=O)[O-])NCCO was tested, and the T/C [1] was 113 % of control, the T/C [2] was 105 % of control and the T/C (dose: 50.0 mg/kg/injection, schedule: Q01DX009 (ip), vehicle: water) was 101 % of control. The T/C (dose: 100.0 mg/kg/injection, schedule: Q01DX009 (ip), vehicle: water) was 105 % of control and the T/C (dose: 200.0 mg/kg/injection, schedule: Q01DX009 (ip), vehicle: water) was 114 % of control.
In the case of COc1cccc2c1C(=O)c1c(O)c3c(c(O)c1C2=O)C[C@@](O)(C(C)O)C[C@@H]3OC1CC(N(Cc2ccccc2)Cc2ccccc2)C(O)C(C)O1 (stereo partly drawn), the T/C (dose: 4.7 mg/kg/injection, schedule: Q04DX003 (ip), vehicle: water) was 121 % of control, the T/C (dose: 6.25 mg/kg/injection, schedule: Q01DX009 (ip), vehicle: water) was 165 % of control and the T/C [1] was 228 % of control and 233 % of control. For the same molecule, the T/C [2] was 97 % of control, the T/C (dose: 25.0 mg/kg/injection, schedule: Q04DX003 (ip), vehicle: water) was 194 % of control and the T/C (dose: 37.5 mg/kg/injection, schedule: Q04DX003 (ip), vehicle: water) was 106 % of control. The T/C (dose: 50.0 mg/kg/injection, schedule: Q04DX003 (ip), vehicle: water) was 233 % of control and the T/C (dose: 75.0 mg/kg/injection, schedule: Q04DX003 (ip), vehicle: water) was 116 % of control.
With COc1ccc2c(c1)CC/C(=C\C1(Sc3ccccc3)CC1)C2O (stereo not drawn) the T/C (dose: 50.0 mg/kg/injection, schedule: Q01DX005 (ip), vehicle: saline with Tween-80) was 102 % of control, the T/C (dose: 100.0 mg/kg/injection, schedule: Q01DX005 (ip), vehicle: saline with Tween-80) was 102 % of control and the T/C (dose: 200.0 mg/kg/injection, schedule: Q01DX005 (ip), vehicle: saline with Tween-80) was 98 % of control.
CCOP(=S)(N/N=C/c1ccc(Br)s1)OCC was tested, and the T/C (dose: 50.0 mg/kg/injection, schedule: Q01DX005 (ip), vehicle: Klucel (hydroxypropylcellulose) (HPC)) was 101 % of control, the T/C (dose: 100.0 mg/kg/injection, schedule: Q01DX005 (ip), vehicle: Klucel (hydroxypropylcellulose) (HPC)) was 106 % of control and the T/C (dose: 200.0 mg/kg/injection, schedule: Q01DX005 (ip), vehicle: Klucel (hydroxypropylcellulose) (HPC)) was 104 % of control.
COc1ccc(OC)c2c1nc(CBr)n2C was tested, and the T/C (dose: 16.25 mg/kg/injection, schedule: Q01DX005 (ip), vehicle: DMSO) was 104 % of control and the T/C (dose: 32.5 mg/kg/injection, schedule: Q01DX005 (ip), vehicle: DMSO) was 93 % of control.
CN(C)/C=C/C(=O)c1ccccc1 was tested, and the T/C [3] was 107 % of control, the T/C [4] was 101 % of control and the T/C [5] was 102 % of control.
In the case of CC(C)c1ccc2nc3ccc(C(=O)NCCN4CCN(c5ccccc5)CC4)cn3c(=O)c2c1, the T/C [3] was 97 % of control, the T/C [4] was 89 % of control and the T/C [5] was 92 % of control.
